Read-outs that look alike come from different tables or passages of the source.
Assays:
[1] = target: M. burtonii mevalonate kinase (Methanococcoides burtonii, UniProt Q12TI0); test: Mevalonate kinase coupled spectrophotometric kinetic and inhibition assay; assay type: biochemical; settings: for kcat: 40 nM purified enzyme, varying mevalonate and ATP
[2] = target: M. mazei mevalonate kinase (Methanosarcina mazei, UniProt Q8PW39); test: as above; assay type: biochemical; settings: for Vmax / α / kcat / Ka/b: random bireactant system model; for kcat: 80 nM purified enzyme, varying mevalonate and ATP; for Ka/b: Ka(Mev), Kb(ATP)
[3] = test system: engineered E. coli strains; assay type: cell-based
[4] = inhibitor added at various concentrations to the reaction mix, read-out: Ki

Sequence of M. burtonii mevalonate kinase (Q12TI0 entry or part of it): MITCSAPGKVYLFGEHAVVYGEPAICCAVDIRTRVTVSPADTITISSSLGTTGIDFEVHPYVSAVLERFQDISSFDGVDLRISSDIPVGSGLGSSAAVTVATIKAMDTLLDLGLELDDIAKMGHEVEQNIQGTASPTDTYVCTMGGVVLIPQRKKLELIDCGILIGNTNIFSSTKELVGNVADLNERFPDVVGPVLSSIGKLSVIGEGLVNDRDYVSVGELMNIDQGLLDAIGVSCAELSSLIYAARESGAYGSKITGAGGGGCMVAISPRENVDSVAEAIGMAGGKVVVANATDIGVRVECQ
Sequence of M. mazei mevalonate kinase (Q8PW39 entry or part of it): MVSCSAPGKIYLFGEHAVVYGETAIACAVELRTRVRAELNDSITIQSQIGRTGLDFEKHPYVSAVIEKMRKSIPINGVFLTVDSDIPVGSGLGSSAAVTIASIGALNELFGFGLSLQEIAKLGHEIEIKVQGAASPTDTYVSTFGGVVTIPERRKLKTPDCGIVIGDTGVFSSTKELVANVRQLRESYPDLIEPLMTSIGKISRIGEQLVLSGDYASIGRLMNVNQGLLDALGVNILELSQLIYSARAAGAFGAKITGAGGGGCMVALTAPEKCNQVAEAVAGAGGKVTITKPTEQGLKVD

Molecule Nc1ncnc2c1ncn2[C@@H]1O[C@H](COP(=O)(O)OP(=O)(O)OP(=O)(O)O)[C@@H](O)[C@H]1O [ATP, Adenosine triphosphate] has a Ka/b [1] of 212 µM, a Vmax ([1]; random bireactant system model) of 2.97 µM/s and a α ([1]; random bireactant system model) of 3.74. It also gave a kcat ([1]; random bireactant system model) of 74.3 s⁻¹, a Vmax [2] of 2.14 µM/s and a α [2] of 1.62. The kcat [2] was 26.8 s⁻¹ and the Ka/b [2] was 460 µM.
In the case of CC(C)=CCOP(=O)(O)OP(=O)(O)O [DMAPP, dimethylallyl diphosphate, reference compound], the Ki [1] is reported as over 5 mM and the Ki [2] is reported as over 5 mM.
CC(C)=CCC/C(C)=C/COP(=O)(O)OP(=O)(O)O [GPP, geranyl pyrophosphate, reference compound] was tested, and the Ki [1, 4] was over 5 mM and the Ki [2, 4] was over 5 mM.
Molecule C=C(C)CCO[P@@](=O)(O)OP(=O)(O)O [IPP, isopentenyl pyrophosphate, reference compound] has a Ki [1] of over 5 mM and a Ki [2] of over 5 mM.
CC(O)(CCOP(=O)(O)O)CC(=O)O (stereo not shown) [MVP, reference compound] was tested, and the Ki [1, 4] was over 3 mM and the Ki [2, 4] was over 3 mM.
C[C@@](O)(CCOP(=O)(O)OP(=O)(O)O)CC(=O)O [MVPP, reference compound] gave a Ki [1, 4] of over 5 mM and a Ki [2, 4] of over 1 mM.
CC(O)(CCO)CC(=O)O (stereo not shown) [Mevalonate, mevalonate] was tested, and the Vmax ([1]; random bireactant system model) was 1.78 µM/s, the α ([1]; random bireactant system model) was 0.52 and the kcat ([1]; random bireactant system model) was 44.4 s⁻¹. It also gave a Ka/b ([1]; random bireactant system model, Ka(Mev), Kb(ATP)) of 391 µM, a Vmax [2] of 1.46 µM/s and a α [2] of 0.23. For the same molecule, the kcat [2] was 18.3 s⁻¹, the Ka/b [2] was 397 µM and the “growth inhibition by mevalonate” value ([3]; strain MCM2131, mevalonate between 0 and 16 mM) was “not inhibited”. For the same molecule, the “growth inhibition by mevalonate” value ([3]; strains MCM2125, MCM2127 and MCM2130, mevalonate 0-16 mM) was “not inhibited”.

— patent publication US10975394B2, “Recombinant microorganisms for enhanced production of mevalonate, isoprene, and isoprenoids” (Danisco US Inc., priority 2011, dated 2021)
